# Measured values as given in article PMC8838521, “Antimicrobial, Cytotoxic and Mutagenic Activity of Gemini QAS Derivatives of 1,4:3,6-Dianhydro-L-iditol” (Molecules, 2022).
# Structures can show the parent of a compound that is named as a salt.
# How the values were obtained:
# [1] = tested on: Escherichia coli K12; conditions: strain not stated; cited from earlier work
# [2] = tested on: Candida albicans ATCC 10231; parameters: method as in PMID 16459482; conditions: strain not stated; cited from earlier work
# [3] = tested on: human keratinocytes (HaCaT cell line); experiment: Cytotoxicity, MTT assay; assay type: cell-based; conditions: MTT, 24 h incubation
# Protocol: To assess the cytotoxicity of QAS (IC50), the MTT assay on 96-well polystyrene plates was performed for human keratinocytes (HaCaT, Elabscience Biotechnology Inc., Houston, Texas, USA). The assay utilizes colorimetric determination of the cell metabolic activity and the color intensity reflects the number of live cells that can be measured spectrophotometrically. The cell line was cultured in a Dulbecco’s modified Eagle Medium (Invitrogen) supplemented with 10% fetal bovine serum (Sigma Aldrich) (v/v), 100 units/mL of penicillin, 100 μg/mL of streptomycin, and 2 mM L-glutamine and was stored at 37 °C in a humidified 5% CO2 incubator. Briefly, a day after plating of 500 cells per well, a series of concentrations (0.5–200 μg/mL) of the test compounds was applied. DMSO was added to the control cells at a final concentration of 1.0% (v/v), which was related to the maximal concentration of the solvent compounds used in the experiment. After 24 h of incubation with the QAS at 37 °C (humidified 5% CO2 incubator), a medium containing 1 mg/mL of MTT (3-(4,5-dimethylthiazol-2-yl)-2,5-diphenyltetrazolium bromide) was added to the wells up to a final concentration of 0.5 mg/mL. Subsequently, the plates were incubated at 37 °C for 4 h. Then, the medium was removed by suction, and the formazan product was solubilized with DMSO. The background absorbance at 630 nm was subtracted from that at 570 nm for each well (Epoch, BioTek Instruments, Winooski, VT, USA). Six replicates were conducted for each concentration. All experiments were repeated at least twice and the resulting IC50 values were calculated with GraFit 7 software (v. 7.0, Erithacus, Berkley, CA, USA).
# [4] = tested on: Staphylococcus aureus ATCC 25923; parameters: method as in PMID 23669380; conditions: strain not stated; cited from earlier work
Compound,melting point,MIC against E. coli [1],MIC against C. albicans [2],HaCaT IC50 [3],MIC against S. aureus [4]
"NC(=O)c1ccc[n+](C2COC3C2OCC3[n+]2cccc(C(N)=O)c2)c1 (as salt: methanesulfonate) [QAS 5, N,N’-(1,4:3,6-Dianhydro-2,5-dideoxy-L-iditol-2,5-diyl)-bis[(3-carboxamide)pyridinium] Ditrifluoromethanesulfonate]",63.5 to 65.2 °C,–,–,–,–
"Cn1cc[n+](C2COC3C2OCC3[n+]2ccn(C)c2)c1 (as salt: methanesulfonate) [QAS 6, N,N’-(1,4:3,6-Dianhydro-2,5-dideoxy-L-iditol-2,5-diyl)-bis(N-methylimidazolium) Ditrifluoromethanesulfonate]",90.5 to 93.7 °C,–,–,–,–
"CCCCCCCCCC[N+](C)(C)C1COC2C1OCC2[N+](C)(C)CCCCCCCCCC (as salt: methanesulfonate) [QAS 10, N,N’-(1,4:3,6-Dianhydro-2,5-dideoxy-L-iditol-2,5-diyl)-bis(N,N-dimethyl-N-decylammonium) Ditrifluoromethanesulfonate]",191 °C (dec.),–,–,–,–
Benzalkonium chloride [BAC],–,13 µg/mL,8 µg/mL,1.1 ± 1.4 µg/mL,2 µg/mL
